Reference: patent EP1368020B1, “METHOD FOR IDENTIFYING MAXI-K CHANNEL BLOCKERS” (priority 2001, dated 2002)

Columns and labels:
Type in all cases: cell-based
[1] = biological target: T1, maxi-K channel (alpha and beta1 subunits) in stably transfected HEK-293 cells (Homo sapiens, UniProt Q12791); test: FRET membrane potential assay (VIPR), HEK-293 cells stably transfected with alpha and beta1 subunits of the maxi-K channel
T1 construct: expressed in transfected cells
Procedure: Transfection of the alpha and beta1 subunits of the maxi-K channel in HEK-293 cells was carried out as follows: HEK-293 cells were plated in 100 mm tissue culture treated dishes at a density of 3x10^6 cells per dish, and a total of five dishes were prepared. Cells were grown in a medium consisting of Dulbecco's Modified Eagle Medium (DMEM) supplemented with 10% Fetal Bovine serum, 1X L-Glutamine, and 1X Penicillin/Streptomycin, at 37°C, 10% CO2. For transfection with Maxi-K hα (pCIneo) and Maxi-K hβ1 (pIRESpuro) DNAs, 150 µl FuGENE6™ was added dropwise into 10 ml of serum free/phenol-red free DMEM and allowed to incubate at room temperature for 5 minutes. Then, the FuGENE6™ solution was added dropwise to a DNA solution containing 25 µg of each plasmid DNA, and incubated at room temperature for 30 minutes. After the incubation period, 2 ml of the FuGENE6™/DNA solution was added dropwise to each plate of cells and the cells were allowed to grow two days under the same conditions as described above. At the end of the second day, cells were put under selection media which consisted of DMEM supplemented with both 600 µg/ml G418 and 0.75 µg/ml puromycin. Cells were grown until separate colonies were formed. Five colonies were collected and transferred to a 6 well tissue culture treated dish. A total of 75 colonies were collected. Cells were allowed to grow until a confluent monolayer was obtained. Cells were then tested for the presence of maxi-K channel alpha and beta 1 subunits using an assay that monitors binding of ^125I-iberiotoxin-D19Y/Y36F to the channel. Cells expressing ^125I-iberiotoxin-D19Y/Y36F binding activity were then evaluated in a functional assay that monitors the capability of maxi-K channels to control the membrane potential of transfected HEK-293 cells using fluorescence resonance energy transfer (FRET) ABS technology with a VIPR instrument. The colony giving the largest signal to noise ratio was subjected to limiting dilution. For this, cells were resuspended at approximately 5 cells/ml, and 200 µl were plated in individual wells in a 96 well tissue culture treated plate, to add ca. one cell per well. A total of two 96 well plates were made. When a confluent monolayer was formed, the cells were transferred to 6 well tissue culture treated plates. A total of 62 wells were transferred. When a confluent monolayer was obtained, cells were tested using the FRET-functional assay. […]
The plates are loaded into a voltage/ion probe reader (VIPR) instrument, and the fluorescence emission of both CC2DMPE and DiSBAC2(3) are recorded for 10 sec. At this point, 100 µl of high-potassium solution (mM): 140 KCl, 2 CaCl2, 1 MgCl2, 20 Hepes-KOH, pH 7.4, 10 glucose are added and the fluorescence emission of both dyes recorded for an additional 10 sec. […]

[2] = biological target: T2, maxi-K channels transiently expressed in TsA-201 cells (Homo sapiens, UniProt Q12791); test: FRET membrane potential assay (VIPR), maxi-K channels transiently expressed in TsA-201 cells; conditions: 3 µM, Figure 2
T2 construct: expressed in transfected cells; host or cells: TsA-201 cells, transient transfection

[3] = tested on: endogenous potassium conductance of HEK-293 cells; test: FRET membrane potential assay (VIPR), high-potassium addition to untransfected HEK-293 cells; conditions: Figure 1; for effect on the fluorescence signal caused by high-potassium addition: different/increasing concentrations of compound; for efficacy of Compound A or Compound B in the presence of Compound 1: selective maxi-K channel blocker Compound 1 present
Procedure: HEK-293 cells were plated on 96-well poly-D-lysine plates and incubated for about 16 to 24 hours at 37°C. The media was aspirated and the cells were washed once with D-PBS. Cells were incubated with 9 µM coumarin (CC2DMPE)-0.02% pluronic-127 in D-PBS for 30 minutes in the dark. Cells were washed twice with D-PBS, and incubated with 4.5 µM oxanol (DiSBAC2(3)) in the absence (Control) or presence of increasing concentrations of test compound, in the dark for 30 minutes. Plates were loaded onto a VIPR instrument and the fluorescence emission of both dyes was recorded for 10 seconds. A solution containing high-potassium was then added and the fluorescence emission of the dyes was recorded for another 10 seconds. The coumarin/oxanol ratio was calculated under both conditions. Before addition of high-potassium, this ratio was always normalized to 1.
The signal is not affected by the presence of different concentrations of the selective maxi-K channel blocker, Compound 1. […] A useful concentration range for these agents is 3-10 µM. Importantly, in the presence of the selective maxi-K channel blocker Compound 1, the efficacy of either Compound A or Compound B is unaffected.

T1 sequence (Q12791 whole entry): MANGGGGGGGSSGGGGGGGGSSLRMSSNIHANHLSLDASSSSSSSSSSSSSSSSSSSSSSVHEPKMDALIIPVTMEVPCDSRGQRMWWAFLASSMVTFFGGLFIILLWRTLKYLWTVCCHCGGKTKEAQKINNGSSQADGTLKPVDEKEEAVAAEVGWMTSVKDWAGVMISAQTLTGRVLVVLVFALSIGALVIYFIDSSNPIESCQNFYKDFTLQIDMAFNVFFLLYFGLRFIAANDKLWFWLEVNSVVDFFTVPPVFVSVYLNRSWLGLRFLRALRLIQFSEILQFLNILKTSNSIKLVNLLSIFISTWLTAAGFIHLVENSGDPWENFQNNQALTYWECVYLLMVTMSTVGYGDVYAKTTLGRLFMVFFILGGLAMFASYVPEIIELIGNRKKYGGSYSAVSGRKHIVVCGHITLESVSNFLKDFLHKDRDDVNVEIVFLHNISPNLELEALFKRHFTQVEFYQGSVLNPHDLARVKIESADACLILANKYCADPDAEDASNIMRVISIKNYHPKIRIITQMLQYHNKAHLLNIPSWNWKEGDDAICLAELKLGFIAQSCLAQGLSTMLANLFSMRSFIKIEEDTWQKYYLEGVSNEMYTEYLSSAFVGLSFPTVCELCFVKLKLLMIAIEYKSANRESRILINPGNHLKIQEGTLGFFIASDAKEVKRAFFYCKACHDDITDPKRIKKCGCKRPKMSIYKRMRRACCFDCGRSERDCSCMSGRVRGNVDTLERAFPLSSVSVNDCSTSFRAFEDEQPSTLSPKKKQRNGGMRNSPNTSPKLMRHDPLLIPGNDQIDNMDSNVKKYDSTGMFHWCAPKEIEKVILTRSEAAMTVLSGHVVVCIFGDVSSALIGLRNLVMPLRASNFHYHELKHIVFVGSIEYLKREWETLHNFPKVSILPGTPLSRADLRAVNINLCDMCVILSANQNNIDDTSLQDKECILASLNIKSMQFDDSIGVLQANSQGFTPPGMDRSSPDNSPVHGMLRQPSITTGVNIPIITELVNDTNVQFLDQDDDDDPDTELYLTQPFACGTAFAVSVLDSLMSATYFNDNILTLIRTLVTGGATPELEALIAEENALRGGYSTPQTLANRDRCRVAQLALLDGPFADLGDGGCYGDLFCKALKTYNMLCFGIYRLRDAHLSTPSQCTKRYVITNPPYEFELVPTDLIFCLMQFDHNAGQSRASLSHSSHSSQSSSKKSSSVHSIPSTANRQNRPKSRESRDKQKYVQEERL
T1 sequence (Q16558 whole entry partner): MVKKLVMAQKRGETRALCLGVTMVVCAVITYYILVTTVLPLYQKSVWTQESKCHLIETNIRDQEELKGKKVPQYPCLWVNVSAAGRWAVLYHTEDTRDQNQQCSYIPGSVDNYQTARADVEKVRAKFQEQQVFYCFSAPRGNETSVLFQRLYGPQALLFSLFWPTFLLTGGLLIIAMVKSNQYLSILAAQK
T2 sequence (Q12791 whole entry): as the sequence (Q12791 whole entry) above
T2 sequence (Q16558 whole entry partner): as the sequence (Q16558 whole entry partner) above

block of the signal generated by addition of a high-potassium solution ([1]; compound alone, no endogenous conductance blocker, Figure 3)	inhibition of the signal generated by addition of a high-potassium solution ([1]; in the presence of Compound A, Figure 3)	effect on control signal (maxi-K channel activity) [2]	SMILES	inhibition of the control signal ([1]; 3 µM Compound A present in all wells, increasing concentrations of compound, Figure 4)	effect on the fluorescence signal caused by high-potassium addition [3]	effect on the magnitude of the signal caused by addition of high-potassium solution ([1]; Compound A alone, Figure 3)	efficacy of Compound A or Compound B in the presence of Compound 1 [3]
only partially blocks the signal	complete inhibition of the signal	completely inhibits the control signal	COc1ccc2c(c1)c(CC(=O)N(C(=O)NC1CCCCC1)C1CCCCC1)c(C)n2C(=O)c1ccc(Cl)cc1 [Compound 1]	concentration-dependent inhibition of the control signal	not affected		
			CCCNC(=O)OC1CCC(CNC(=O)c2ccccc2OC)(c2ccccc2)CC1 (stereo not shown) [Compound A]		concentration-dependent inhibition of the fluorescence signal	no significant effect on the magnitude of the signal	unaffected
			COc1ccccc1C(=O)NCC1(c2ccccc2)CCC(=O)CC1 [Compound B]		concentration-dependent inhibition of the fluorescence signal		unaffected
